Measured values reported in patent US20150065447A1, “SURVIVAL BENEFIT IN PATIENTS WITH SOLID TUMORS WITH ELEVATED C-REACTIVE PROTEIN LEVELS” (Incyte Corporation, priority 2013, published 2015).

Experiments:
[1] = biological target: T1, human JAK1 (a.a. 837-1142) (Homo sapiens, UniProt P23458); experiment: In vitro JAK Kinase Assay (HTRF), JAK1; type: biochemical; conditions: 1 mM ATP
T1 construct: human JAK1 (a.a. 837-1142); His tag (N); made in house; host or cells: insect cells (baculovirus)
Procedure: (§1) The catalytic activity of JAK1 and JAK2 was assayed by measuring the phosphorylation of a biotinylated peptide. The phosphorylated peptide was detected by homogenous time resolved fluorescence (HTRF). […] Reactions were carried out at room temperature for 1 hr and then stopped with 20 μL 45 mM EDTA, 300 nM SA-APC, 6 nM Eu-Py20 in assay buffer (Perkin Elmer, Boston, Mass.). Binding to the Europium labeled antibody took place for 40 minutes and HTRF signal was measured on a Fusion plate reader (Perkin Elmer, Boston, Mass.).

[2] = biological target: T2, human JAK2 (a.a. 828-1132) (Homo sapiens, UniProt O60674); experiment: In vitro JAK Kinase Assay (HTRF), JAK2 (for JAK2/JAK1 ratio); type: biochemical; conditions: ratio of IC50s, 1 mM ATP
T2 construct: JAK2 (a.a. 828-1132); His tag (N); made in house; host or cells: insect cells (baculovirus)
T2 sequence (O60674 828-1132): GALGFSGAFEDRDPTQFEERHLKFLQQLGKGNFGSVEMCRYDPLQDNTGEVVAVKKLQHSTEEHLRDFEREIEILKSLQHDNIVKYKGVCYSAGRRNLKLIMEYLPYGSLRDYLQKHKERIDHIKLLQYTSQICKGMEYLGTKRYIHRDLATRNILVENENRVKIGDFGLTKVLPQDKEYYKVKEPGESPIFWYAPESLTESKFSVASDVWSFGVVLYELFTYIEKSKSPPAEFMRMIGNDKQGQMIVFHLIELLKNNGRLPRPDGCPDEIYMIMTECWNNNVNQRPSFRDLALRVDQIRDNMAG
Procedure: as §1

T1 sequence (P23458 849-1154): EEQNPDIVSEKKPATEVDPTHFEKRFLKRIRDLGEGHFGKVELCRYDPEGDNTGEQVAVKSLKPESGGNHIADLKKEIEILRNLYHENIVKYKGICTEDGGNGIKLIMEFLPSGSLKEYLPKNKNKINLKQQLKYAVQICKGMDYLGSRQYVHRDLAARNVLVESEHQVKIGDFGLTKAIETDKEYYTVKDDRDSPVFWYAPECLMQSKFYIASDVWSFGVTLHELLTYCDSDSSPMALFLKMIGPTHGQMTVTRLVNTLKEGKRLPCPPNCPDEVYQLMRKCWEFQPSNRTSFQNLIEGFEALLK

SMILES | IC50 [1] [nM] | JAK2/JAK1 [2]
N#CCC1(n2cc(-c3ncnc4[nH]ccc34)cn2)CN([C@H]2CC[C@@H](Oc3cc(CCO)nc(C(F)(F)F)n3)CC2)C1 [Compound 18, (l-(cis-4-{[6-(2-hydroxyethyl)-2-(trifluoromethyl)pyrimidin-4-yl]oxy}cyclohexyl)-3-[4-(7H-pyrrolo[2,3-d]pyrimidin-4-yl)-1H-pyrazol-1-yl]azetidin-3-yl}acetonitrile] | < 10 | >10
CCNCc1cc(O[C@H]2CC[C@@H](N3CC(CC#N)(n4cc(-c5ncnc6[nH]ccc56)cn4)C3)CC2)nc(C(F)(F)F)c1 [Compound 19, {l-(cis-4-{[4-[(ethylamino)methyl]-6-(trifluoromethyl)pyridin-2-yl]oxy}cyclohexyl)-3-[4-(7H-pyrrolo[2,3-d]pyrimidin-4-yl)-1H-pyrazol-1-yl]azetidin-3-yl}acetonitrile] | < 10 | >10
CC(C)(O)c1cc(O[C@H]2CC[C@@H](N3CC(CC#N)(n4cc(-c5ncnc6[nH]ccc56)cn4)C3)CC2)nc(C(F)(F)F)c1 [Compound 20, {1-(cis-4-{[4-(1-hydroxy-1-methylethyl)-6-(trifluoromethyl)pyridin-2-yl]oxy}cyclohexyl)-3-[4-(7H-pyrrolo[2,3-d]pyrimidin-4-yl)-1H-pyrazol-1-yl]azetidin-3-yl}acetonitrile] | < 10 | >10
N#CCC1(n2cc(-c3ncnc4[nH]ccc34)cn2)CN([C@H]2CC[C@@H](Oc3cc(CN4CC[C@@H](O)C4)cc(C(F)(F)F)n3)CC2)C1 [Compound 21, {1-(cis-4-{[4-{[(3R)-3-hydroxypyrrolidin-1-yl]methyl}-6-(trifluoromethyl)pyridin-2-yl]oxy}cyclohexyl)-3-[4-(7H-pyrrolo[2,3-d]pyrimidin-4-yl)-1H-pyrazol-1-yl]azetidin-3-yl}acetonitrile] | < 10 | >10
N#CCC1(n2cc(-c3ncnc4[nH]ccc34)cn2)CN([C@H]2CC[C@@H](Oc3cc(CN4CC[C@H](O)C4)cc(C(F)(F)F)n3)CC2)C1 [Compound 22, {1-(cis-4-{[4-{[(3S)-3-hydroxypyrrolidin-1-yl]methyl}-6-(trifluoromethyl)pyridin-2-yl]oxy}cyclohexyl)-3-[4-(7H-pyrrolo[2,3-d]pyrimidin-4-yl)-1H-pyrazol-1-yl]azetidin-3-yl}acetonitrile] | < 10 | >10
C[C@@H](CO)NCc1cc(OC2CCN([C@H]3C[C@](CC#N)(n4cc(-c5ncnc6[nH]ccc56)cn4)C3)CC2)nc(C(F)(F)F)c1 [Compound 23, {trans-3-(4-{[4-({[(1S)-2-hydroxy-1-methylethyl]amino}methyl)-6-(trifluoromethyl)pyridin-2-yl]oxy}piperidin-1-yl)-1-[4-(7H-pyrrolo[2,3-d]pyrimidin-4-yl)-1H-pyrazol-1-yl]cyclobutyl}acetonitrile] | < 10 | >10
C[C@@H](O)CNCc1cc(OC2CCN([C@H]3C[C@](CC#N)(n4cc(-c5ncnc6[nH]ccc56)cn4)C3)CC2)nc(C(F)(F)F)c1 [Compound 24, {trans-3-(4-{[4-({[(2R)-2-hydroxypropyl]amino}methyl)-6-(trifluoromethyl)pyridin-2-yl]oxy}piperidin-1-yl)-1-[4-(7H-pyrrolo[2,3-d]pyrimidin-4-yl)-1H-pyrazol-1-yl]cyclobutyl}acetonitrile] | < 10 | >10
C[C@H](O)CNCc1cc(OC2CCN([C@H]3C[C@](CC#N)(n4cc(-c5ncnc6[nH]ccc56)cn4)C3)CC2)nc(C(F)(F)F)c1 [Compound 25, {trans-3-(4-{[4-({[(2S)-2-hydroxypropyl]amino}methyl)-6-(trifluoromethyl)pyridin-2-yl]oxy}piperidin-1-yl)-1-[4-(7H-pyrrolo[2,3-d]pyrimidin-4-yl)-1H-pyrazol-1-yl]cyclobutyl}acetonitrile] | < 10 | >10
N#CC[C@]1(n2cc(-c3ncnc4[nH]ccc34)cn2)C[C@H](N2CCC(Oc3cc(CCO)cc(C(F)(F)F)n3)CC2)C1 [Compound 26, {trans-3-(4-{[4-(2-hydroxyethyl)-6-(trifluoromethyl)pyridin-2-yl]oxy}piperidin-1-yl)-1-[4-(7H-pyrrolo[2,3-d]pyrimidin-4-yl)-1H-pyrazol-1-yl]cyclobutyl}acetonitrile] | < 10 | >10
